In patent US20160040126A1, “REGULATION OF DIFFERENTIATION INTO DOPAMINERGIC NEURONS BY METALLOPROTEASE” (Korea University Research and Business Foundation, priority 2012, published 2016):

Tests used:
[1] = system: midbrain neurons derived from normal mice and D2R−/− mice; test: Differentiation of midbrain neurons into dopaminergic neural cells (TH immunostaining: number of TH-positive cells, neurite length, neurite number); type: cell-based; settings: for effect of the agent on the differentiation/development of dopaminergic neural cells by EGF: co-treatment with EGF, or siRNA knockdown before EGF; for effect of the agent on the development of dopaminergic neural cells by EGF+quinpirole: co-treatment with EGF+quinpirole, normal mice and D2R−/− mice
Method: Midbrain neurons derived from normal mice and D2R−/− mice were treated with each of EGF, EGF+haloperidol, EGF+AG1478 and EGF+PD98059, and then stained with TH by an immunostaining technique. Then, the number of TH-positive cells, the length of neurites and the number of neurites in the midbrain neurons were compared between EGF, EGF+haloperidol, EGF+AG1478 and EGF+PD98059 to determine the abilities to induce differentiation into dopaminergic neural cells.
Then, the number of TH-positive cells, the length of neurites and the number of neurites in the midbrain neurons were compared to determine the abilities to induce differentiation into dopaminergic neural cells.

ERK = test: Phosphorylation of ERK in midbrain neurons; type: cell-based, mice; settings: for effect of the agent on the phosphorylation of ERK by quinpirole: co-treatment with quinpirole, or siRNA knockdown before quinpirole; for effect of the agent on the phosphorylation of ERK by EGF: co-treatment with EGF

Compound | differentiation of dopaminergic neural cells from midbrain neurons ([1]; treated with the agent alone, normal mouse and D2R−/− mouse midbrain neurons, TH immunostaining) | phosphorylation of ERK by the agent (ERK; compared to that in the control) | effect of the agent on the differentiation/development of dopaminergic neural cells by EGF ([1]; midbrain neurons) | effect of the agent on the development of dopaminergic neural cells by EGF+quinpirole [1] | effect of the agent on the phosphorylation of ERK by quinpirole (ERK) | effect of the agent on the development of dopaminergic neural cells by quinpirole ([1]; co-treatment with quinpirole, or siRNA knockdown before quinpirole, midbrain neurons) | effect of the agent on the phosphorylation of ERK by EGF (ERK)
EGF: epidermal growth factor (NSDSECPLSHDGYCLHDGVCMYIEALDKYACNCVVGYIGERCQYRDLKWWELR; Epidermal growth factor; UniProt P01133 971-1023, looked up) | promoted | 417% |  |  |  |  | 
COc1cccc(-c2cc(=O)c3ccccc3o2)c1N [PD98059] |  |  | completely blocked |  |  |  | 
COc1cc2ncnc(Nc3cccc(Cl)c3)c2cc1OC [AG1478] |  |  | completely blocked | inhibited to the basal level | inhibited |  | 
CNC(=O)[C@H](Cc1c[nH]c2ccccc12)NC(=O)[C@H](CC(=O)NO)CC(C)C [GM6001, (2S)—N4-hydroxy-N1-[(1S)-1-(1H-indol-3-ylmethyl)-2-(methylamino)-2-oxoethyl]-2-isobutylsuccinamide] |  |  | not inhibited |  | inhibited to the basal level | inhibited | not influenced
O=C(CCCN1CCC(O)(c2ccc(Cl)cc2)CC1)c1ccc(F)cc1 [haloperidol] |  |  | not blocked | not inhibited |  |  | not inhibited
